In the oligonucleotide strings, read from the 5' end, every base follows the letter of its sugar. An asterisk marks phosphorothioate; unmarked linkages are phosphodiester. Other units and linkages are bracketed, terminal groups are in braces. A string of capitals states the bases alone. d = 2'-deoxy (DNA)

Results on 35 substances are retold here after patent US20080292619A1, “Pharmaceutical Composition Containing Meltrin Antagonist” (MOCHIDA PHARMACEUTICAL CO., LTD., priority 2004, published 2008).

The first series concerns human meltrin α RNA. Briefly: Suppression of human meltrin α expression by antisense compound in RD cell (real time PCR). The following applies: 50 nM; RD cell; corrected by GAPDH. The class given is cell-based. The gist of the method:
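RD cells transfected with heat-denatured antisense oligodeoxynucleotide plus Lipofectin in Opti-MEM for 4 h at 37° C, then cultured 18 h. Meltrin α RNA quantified by TaqMan RT-PCR against plasmid standard curve, GAPDH-corrected; suppression vs untreated cells, rated +/++/+++ for ≥30/50/70%.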
For the substance “H130 + 5: gagcctgacagggttggaag (GAGCCTGACAGGGTTGGAAG; antisense; DNA, all phosphorothioate, methylation of C not given here)”, the “suppression rate of expression, 50 nM” value is “++ (“++” when the suppression rate was at least 50%)”.
“H149: caggtctgaggggtgccagg (dC*dA*dG*dG*dT*dC*dT*dG*dA*dG*dG*dG*dG*dT*dG*dC*dC*dA*dG*dG; antisense)”: the “suppression rate of expression, 50 nM” value is given as “+ (“+” when the suppression rate was at least 30%)”.
“H136 + 16: agggacattcaggccgttga (AGGGACATTCAGGCCGTTGA; antisense; DNA, all phosphorothioate, methylation of C not given here)”: the “suppression rate of expression, 50 nM” value is on record as “+ (“+” when the suppression rate was at least 30%)”.
In the case of “H139 + 18: acgctaggtgcacgtggggc (ACGCTAGGTGCACGTGGGGC; antisense; DNA, all phosphorothioate, methylation of C not given here)”, the “suppression rate of expression, 50 nM” value is reported as “++ (“++” when the suppression rate was at least 50%)”.
As to “H133 + 4: cttcggtgggtaggaatctg (CTTCGGTGGGTAGGAATCTG; antisense; DNA, all phosphorothioate, methylation of C not given here)”, the “suppression rate of expression, 50 nM” value is on record as “++ (“++” when the suppression rate was at least 50%)”.
Still for that read-out and setting: with “H138: cactcgctgagttgactggg (CACTCGCTGAGTTGACTGGG; antisense; DNA, all phosphorothioate, methylation of C not given here)” the entry was “++ (“++” when the suppression rate was at least 50%)”.
Regarding “H008: gccgccgctgagctcttcta (GCCGCCGCTGAGCTCTTCTA; antisense; DNA, all phosphorothioate, methylation of C not given here)”, the “suppression rate of expression, 50 nM” value is recorded as “++ (“++” when the suppression rate was at least 50%)”.
For the substance “H144 + 12: aggatctgcaggcagaggct (AGGATCTGCAGGCAGAGGCT; antisense; DNA, all phosphorothioate, methylation of C not given here)”, the “suppression rate of expression, 50 nM” value was “+++ (“+++” when the suppression rate was at least 70%)”.
For the substance “H144 + 15: cagaggatctgcaggcagag (CAGAGGATCTGCAGGCAGAG; antisense; DNA, all phosphorothioate, methylation of C not given here)”, the “suppression rate of expression, 50 nM” value is reported as “+ (“+” when the suppression rate was at least 30%)”.
Consider “H130 + 10: gaggtgagcctgacagggtt (GAGGTGAGCCTGACAGGGTT; antisense; DNA, all phosphorothioate, methylation of C not given here)”, for which the “suppression rate of expression, 50 nM” value is listed as “+ (“+” when the suppression rate was at least 30%)”.
Turning to “H133 + 1: cggtgggtaggaatctggcg (CGGTGGGTAGGAATCTGGCG; antisense; DNA, all phosphorothioate, methylation of C not given here)”, the “suppression rate of expression, 50 nM” value is “++ (“++” when the suppression rate was at least 50%)”.
As to “H139 + 15: ctaggtgcacgtggggcccg (CTAGGTGCACGTGGGGCCCG; antisense; DNA, all phosphorothioate, methylation of C not given here)”, the “suppression rate of expression, 50 nM” value is “+++ (“+++” when the suppression rate was at least 70%)”.
Take “H143 + 9: gaggggggtttggcttacag (GAGGGGGGTTTGGCTTACAG; antisense; DNA, all phosphorothioate, methylation of C not given here)”: the “suppression rate of expression, 50 nM” value is reported as “+ (“+” when the suppression rate was at least 30%)”.
On to “H139 + 12: ggtgcacgtggggcccggtg (GGTGCACGTGGGGCCCGGTG; antisense; DNA, all phosphorothioate, methylation of C not given here)”, for which the “suppression rate of expression, 50 nM” value is given as “+ (“+” when the suppression rate was at least 30%)”.

The series is the same for the next values; noted with them: 200 nM; RD cell; corrected by GAPDH.
In the case of “H250: atctaaggatttgggcatct (DNA dA*dT*dC*dT*dA*dA*dG*dG*dA*dT*dT*dT*dG*dG*dG*dC*dA*dT*dC*dT; antisense)”, the “suppression rate of expression, 200 nM” value is given as “+ (“+” when the suppression rate was at least 30%)”.
For “H149: caggtctgaggggtgccagg (dC*dA*dG*dG*dT*dC*dT*dG*dA*dG*dG*dG*dG*dT*dG*dC*dC*dA*dG*dG; antisense)”, the “suppression rate of expression, 200 nM” value is “+++ (“+++” when the suppression rate was at least 70%)”.
Consider “H048: cagctccacatacttagttg (CAGCTCCACATACTTAGTTG; antisense; DNA, all phosphorothioate, methylation of C not given here)”, for which the “suppression rate of expression, 200 nM” value is reported as “++ (“++” when the suppression rate was at least 50%)”.
With “H082: tcctctggctccccacagtc (dT*dC*dC*dT*dC*dT*dG*dG*dC*dT*dC*dC*dC*dC*dA*dC*dA*dG*dT*dC; antisense)”, the “suppression rate of expression, 200 nM” value is recorded as “+ (“+” when the suppression rate was at least 30%)”.
Take “H141: ggctggcaggggtctggcag (GGCTGGCAGGGGTCTGGCAG; antisense; DNA, all phosphorothioate, methylation of C not given here)”: the “suppression rate of expression, 200 nM” value was “++ (“++” when the suppression rate was at least 50%)”.
The same measure, in the same setting: next, “H129: gggtggccgggaagggcgca (GGGTGGCCGGGAAGGGCGCA; antisense; DNA, all phosphorothioate, methylation of C not given here)”: “++ (“++” when the suppression rate was at least 50%)”; “H166: aacaagccttcctgccatgg (dA*dA*dC*dA*dA*dG*dC*dC*dT*dT*dC*dC*dT*dG*dC*dC*dA*dT*dG*dG; antisense)”: “++ (“++” when the suppression rate was at least 50%)”; “H069: catcccgaaattgtggccca (dC*dA*dT*dC*dC*dC*dG*dA*dA*dA*dT*dT*dG*dT*dG*dG*dC*dC*dC*dA; antisense)”: “+ (“+” when the suppression rate was at least 30%)”.
On to “H089: ggaggtcacaggagttgctg (dG*dG*dA*dG*dG*dT*dC*dA*dC*dA*dG*dG*dA*dG*dT*dT*dG*dC*dT*dG; antisense)”, for which the “suppression rate of expression, 200 nM” value was “+ (“+” when the suppression rate was at least 30%)”.
On the same count and under the same terms, with “H040: ttgtatctgttggttgcact (TTGTATCTGTTGGTTGCACT; antisense; DNA, all phosphorothioate, methylation of C not given here)” the entry was “+ (“+” when the suppression rate was at least 30%)”; with “H111: acactttgtgcctgcaagca (dA*dC*dA*dC*dT*dT*dT*dG*dT*dG*dC*dC*dT*dG*dC*dA*dA*dG*dC*dA; antisense)”, “+ (“+” when the suppression rate was at least 30%)”; with “H115: tggcactgcattgcacactc (dT*dG*dG*dC*dA*dC*dT*dG*dC*dA*dT*dT*dG*dC*dA*dC*dA*dC*dT*dC; antisense)”, “++ (“++” when the suppression rate was at least 50%)”.
Take “H001: gactaggaagagcgttagtg (GACTAGGAAGAGCGTTAGTG; antisense; DNA, all phosphorothioate, methylation of C not given here)”: the “suppression rate of expression, 200 nM” value is recorded as “+ (“+” when the suppression rate was at least 30%)”.
In the case of “H041: gcttcttcgctgggaagagt (GCTTCTTCGCTGGGAAGAGT; antisense; DNA, all phosphorothioate, methylation of C not given here)”, the “suppression rate of expression, 200 nM” value is given as “+ (“+” when the suppression rate was at least 30%)”.
In the case of “H138: cactcgctgagttgactggg (CACTCGCTGAGTTGACTGGG; antisense; DNA, all phosphorothioate, methylation of C not given here)”, the “suppression rate of expression, 200 nM” value is given as “+++ (“+++” when the suppression rate was at least 70%)”.
The same measure, in the same setting: next, “H008: gccgccgctgagctcttcta (GCCGCCGCTGAGCTCTTCTA; antisense; DNA, all phosphorothioate, methylation of C not given here)”: “++ (“++” when the suppression rate was at least 50%)”; “H243: cagcagtattattttccagc (DNA dC*dA*dG*dC*dA*dG*dT*dA*dT*dT*dA*dT*dT*dT*dT*dC*dC*dA*dG*dC; antisense)”: “+ (“+” when the suppression rate was at least 30%)”.
For the substance “H099: aggatcacctgcagaattga (dA*dG*dG*dA*dT*dC*dA*dC*dC*dT*dG*dC*dA*dG*dA*dA*dT*dT*dG*dA; antisense)”, the “suppression rate of expression, 200 nM” value was “+ (“+” when the suppression rate was at least 30%)”.
With “H210: ccccatagagaaggttcttt (dC*dC*dC*dC*dA*dT*dA*dG*dA*dG*dA*dA*dG*dG*dT*dT*dC*dT*dT*dT; antisense)”, the “suppression rate of expression, 200 nM” value is listed as “++ (“++” when the suppression rate was at least 50%)”.
As for “H098: ctctctcaaagcagatccca (dC*dT*dC*dT*dC*dT*dC*dA*dA*dA*dG*dC*dA*dG*dA*dT*dC*dC*dC*dA; antisense)”, the “suppression rate of expression, 200 nM” value is on record as “+ (“+” when the suppression rate was at least 30%)”.
“H176: ggctctggcctgagatgggg (dG*dG*dC*dT*dC*dT*dG*dG*dC*dC*dT*dG*dA*dG*dA*dT*dG*dG*dG*dG; antisense)”: the “suppression rate of expression, 200 nM” value is listed as “+ (“+” when the suppression rate was at least 30%)”.
On the same count and under the same terms, next, “H164: atgcctactacagcgcactg (dA*dT*dG*dC*dC*dT*dA*dC*dT*dA*dC*dA*dG*dC*dG*dC*dA*dC*dT*dG; antisense)”: “++ (“++” when the suppression rate was at least 50%)”; “H100: actttgccacagttgccata (dA*dC*dT*dT*dT*dG*dC*dC*dA*dC*dA*dG*dT*dT*dG*dC*dC*dA*dT*dA; antisense)”: “+ (“+” when the suppression rate was at least 30%)”.

Still in this series, the particulars now being: 200 nM; chimeric 2′-methoxy antisense oligonucleotides; RD cell.
Take “H076-OMe2: chimeric antisense oligonucleotide CTTTCtccaggctggTCTCC, uppercase 2′-methoxy nucleotides, lowercase phosphorothioate nucleotides (CTTTCTCCAGGCTGGTCTCC; 2'-O-methyl at 1, 2, 3, 4, 5, 16, 17, 18, 19, 20, other sugars, backbone and T or U not given here; lowercase gap nucleotides phosphorothioate)”: the “suppression rate of expression, 200 nM” value was “+++ (“+++” when the suppression rate was at least 70%)”.
